Results as given in patent US20230226176A1, “NOVEL IMMUNE ADJUVANT AND VACCINE COMPOSITION INCLUDING THE SAME” (REPUBLIC OF KOREA (ANIMAL AND PLANT […]), priority 2020, published 2023).

B1: IL-4: rpIL-4 (R&D Systems, 20 ng/mL) for M2 MΦ polarization (protein, UniProt Q04745 25-133, looked up)
Interleukin-4: HKCDITLQEIIKTLNILTARKNSCMELPVTDVFAAPENTTEKETFCRASTVLRHIYRHHTCMKSLLSGLDRNLSSMANMTCSVHEAKKSTLKDFLERLKTIMKEKYSKC

Columns and labels:
FMDV = test system: FMDV; design: species or system C57BL/6 mice; conditions: mouse, in vivo
SP antibodies in serum = test system: SP antibodies in serum; design: species or system C57BL/6 mice; conditions: mouse, in vivo
porcine naive PBMCs = type: cell-based, pigs
porcine PBMCs = type: cell-based, pigs; conditions: 12 hours
porcine Mo-DCs [1] = type: cell-based, pigs
porcine Mo-MΦs [2] = experiment: Inhibition of phagocytosis by cytochalasin D, cytokine ELISA in Mo-MΦs
porcine Mo-DCs [3] = experiment: Inhibition of phagocytosis by cytochalasin D, cytokine ELISA in Mo-DCs; conditions: 5 μg/mL CytD 45 min before 1 μg/mL antigen
porcine Mo-MΦs [4] = type: cell-based, pigs

| Molecule | increase of neutralizing antibody (VN titers) (FMDV) | antibody titers measured by SP-O ELISA compared to the control (SP antibodies in serum) | Cell proliferation, rank order (porcine naive PBMCs) | VN titers (FMDV) | other results |
| --- | --- | --- | --- | --- | --- |
| C/C(=C\COP(=O)([O-])OP(=O)([O-])[O-])CO.[Li+].[Li+].[Li+] [HMP (H), (E)-1-hydroxy-2-methyl-2-butenyl 4-pyrophosphate lithium salt] | approximately 100 fold | significantly higher | >antigen+iNKT cell agonist (G) |  |  |
| C=C(C)CCOP(=O)([O-])OP(=O)([O-])[O-].[Li+].[Li+].[Li+] [IPP (I), Isopentenyl pyrophosphate trilithium salt] | approximately 100 fold | significantly higher | >antigen alone | highest |  |
| CCCCCCCCCCCCCCCCCCCCCCCCCC(=O)N[C@@H](CO[C@H]1O[C@H](CO)[C@H](O)[C@H](O)[C@H]1O)[C@H](O)[C@H](O)CCCCCCCCCCCCCC [α-Gal (G), α-galactosyl ceramide] | approximately 100 fold | significantly higher | >antigen+MAIT cell agonist (F) | highest | IL23A and IL23R expression (porcine PBMCs): specifically highly expressed |
| TNFα |  |  |  |  | IL-1β (porcine Mo-DCs [1]): 432.97; IL-6 (porcine Mo-DCs [1]): 201.33; IL-10 (porcine Mo-DCs [1]): 10.85; IL-12/23p40 (porcine Mo-DCs [1]): 135.67; TNFα (porcine Mo-DCs [1]): 74.00 |
| C=C1[C@@H](C)[C@H]2[C@H](Cc3ccccc3)NC(=O)[C@]23[C@H](OC(C)=O)/C=C/[C@@](C)(O)C(=O)[C@@H](C)C/C=C/[C@H]3[C@@H]1O [CytD, cytochalasin D] |  |  |  |  | expression of cytokine when antigen is co-cultured after CytD treatment (porcine Mo-MΦs [2]; 5 μg/mL CytD 45 min before 1 μg/mL antigen): significantly suppressed; IL-10 expression after CytD treatment (porcine Mo-MΦs [2]; not significantly different from pretreatment levels): slightly suppressed; expression of cytokine when antigen is co-cultured after CytD treatment (porcine Mo-DCs [3]): significantly suppressed |
| Nc1nc2ncc(C=O)nc2c(=O)[nH]1 [6-Formylpterin (F), 6-formylpterin] |  |  | >antigen+T cell agonist (R) | high levels | antibody titers measured by SP-O ELISA (SP antibodies in serum): increased |
| B1 |  |  |  |  | IL-1β (porcine Mo-MΦs [4]): 223.43; IL-10 (porcine Mo-MΦs [4]): 1.88; IL-12/23p40 (porcine Mo-MΦs [4]): 29.00 |
